Data taken from paper PMC11350809, “Targeting N-Acetylglucosaminidase in Staphylococcus aureus with Iminosugar Inhibitors” (Antibiotics, 2024).
Where two headings read alike, the source gives them in different places.

Key:
[1] = test system: S. aureus (ATCC 29213); assay: Minimal inhibitory concentration, broth microdilution; type: cell-based, Staphylococcus aureus; settings: for MIC: Staphylococcus aureus, ATCC29213; for antibacterial activity against S. aureus ATCC 29213: in words
Description: (§1) The minimal inhibitory concentrations (MICs) were determined against the bacterial strains S. aureus (ATCC 29213) and E. coli (ATCC 25922), and the results are presented in Table S6.
(§2) Antimicrobial testing was carried out by the broth microdilution method in a 96-well plate format following the CLSI guidelines and European Committee for Antimicrobial Susceptibility Testing (EUCAST) recommendations. Bacterial suspension of a specific bacterial strain equivalent to 0.5 McFarland turbidity standard was diluted with cation-adjusted Mueller Hinton broth to obtain a final inoculum of 10^5 CFU/mL. Compounds dissolved in 20% DMSO and inoculum were mixed together and incubated for 20 h at 35 °C. After incubation, the minimal inhibitory concentration (MIC) values were determined by visual inspection as the lowest dilution of compounds showing no turbidity. The MICs were determined against S. aureus (ATCC 29213) and E. coli (ATCC 25922) bacterial strains. Tetracycline was used as a positive control on every assay plate, showing MICs of 0.5 µg/mL and 1 µg/mL for S. aureus and E. coli, respectively.

[2] = test system: E. coli (ATCC 25922); assay: Minimal inhibitory concentration, broth microdilution (negative control strain); type: cell-based; settings: Escherichia coli, ATCC25922
Description: as §1, §2

[3] = biological target: α-Glucosidase (from baker's yeast); settings: cited from earlier work
[4] = biological target: α-Galactosidase (from green coffee beans); settings: cited from earlier work
[5] = biological target: β-Glucosidase (from almond); settings: cited from earlier work
[6] = biological target: β-Galactosidase (from bovine liver); settings: cited from earlier work
[7] = biological target: naringinase (Nar); settings: cited from earlier work
[8] = biological target: human recombinant β-glucocerebrosidase (GBA); settings: cited from earlier work
[9] = biological target: β-galactocerebrosidase (GALC); settings: cited from earlier work
[10] = broth microdilution, 20 h at 35 °C, read-out: MIC S. aureus ATCC29213
[11] = broth microdilution, 20 h at 35 °C, read-out: MIC E. coli ATCC25922
[12] = pH 7.2, p-nitrophenyl-α-D-glucopyranoside, footnote ***
[13] = pH 6.8, p-nitrophenyl-α-D-galactopyranoside, footnote ***
[14] = pH 5.0, p-nitrophenyl-β-D-glucopyranoside, footnote ***
[15] = pH 5.2, footnote ***, read-out: IC50 GBA pH 5.2
[16] = pH 7.0, footnote ***, read-out: IC50 GBA pH 7.0
[17] = pH 7.2, p-nitrophenyl-a-d-glucopyranoside, footnote **
[18] = pH 6.8, p-nitrophenyl-a-d-galactopyranoside, footnote **
[19] = pH 5.0, p-nitrophenyl-b-d-glucopyranoside, footnote **
[20] = pH 5.2, footnote **, read-out: IC50 GBA pH 5.2
[21] = pH 7.0, footnote **, read-out: IC50 GBA pH 7.0
[22] = pH 7.2, p-nitrophenyl-α-D-glucopyranoside, footnote *
[23] = pH 6.8, p-nitrophenyl-α-D-galactopyranoside, footnote *
[24] = pH 5.0, p-nitrophenyl-β-D-glucopyranoside, footnote *
[25] = pH 5.2, footnote *, read-out: IC50 GBA pH 5.2
[26] = pH 7.0, footnote *, read-out: IC50 GBA pH 7.0

Row | Structure (SMILES) | MIC [1, 10] | MIC [2, 11] | IC50 [3, 17] | IC50 [4, 18] | IC50 [5, 19] | IC50 ([6]; footnote **) | IC50 ([7]; footnote **) | IC50 [8, 20] | IC50 [8, 21] | IC50 ([9]; footnote **) | antibacterial activity against S. aureus ATCC 29213 [1] | IC50 [3, 22] | IC50 [4, 23] | IC50 [5, 24] | IC50 ([6]; footnote *) | IC50 ([7]; footnote *) | IC50 ([9]; footnote *) | further results
1 | CCCCOC1OCC(CNC(=N)N2CC(O)C(O)C(O)C2)O1 (stereo not shown) [Compound 11] | > 500 µM | > 500 µM | – | – | – | – | – | – | – | – | – | – | – | – | – | – | – | IC50 [3, 12]: > 30 µM; IC50 [4, 13]: > 30 µM; IC50 [5, 14]: 19.2 ± 0.5 µM; IC50 ([6]; footnote ***): > 30 µM; IC50 ([7]; footnote ***): > 30 µM; IC50 [8, 15]: > 30 µM; IC50 [8, 16]: 2.56 ± 0.233 µM; IC50 ([9]; footnote ***): > 30 µM
2 | CCCCCCCCCCCCCCNC(=O)N1CC(O)C(O)C(O)C1 (stereo not shown) [Compound 10] | > 500 µM | > 500 µM | > 100 µM | > 100 µM | > 100 µM | 34.2 ± 1.9 µM | > 100 µM | > 10 µM | > 10 µM | > 10 µM | – | – | – | – | – | – | – | –
3 | CCCCCCCCCCCCNC(=N)N1CC(O)C(O)C(O)C1 (stereo not shown) [Compound 4] | 62.5 µM | 500 µM | > 100 µM | > 100 µM | 10.7 ± 0.3 µM | 0.7 ± 0.1 µM | 37.2 ± 1.7 µM | 0.04 ± 0.01 µM | 0.02 ± 0.001 µM | > 10 µM | modest antibacterial activities | – | – | – | – | – | – | –
4 | CCCCCCCCCCN(CCCCCCCCCC)C(=O)CNC(=N)N1CC(O)C(O)C(O)C1 (stereo not shown) [Compound 6] | ≤ 4 µM | 500 µM | > 100 µM | > 100 µM | > 100 µM | 11.6 ± 4 µM | 3.9 ± 0.6 µM | 0.04 ± 0.01 µM | 0.02 ± 0.001 µM | > 10 µM | modest antibacterial activities | – | – | – | – | – | – | –
5 | CCCCCCCCCCCCCCNC(=N)N1CC(O)C(O)C(O)C1 (stereo not shown) [Compound 5] | 15 µM | 125 µM | > 100 µM | > 100 µM | 2.8 ± 0.1 µM | 1.6 ± 0.2 µM | 33.5 ± 1.7 µM | 0.04 ± 0.01 µM | 0.02 ± 0.001 µM | > 10 µM | modest antibacterial activities | – | – | – | – | – | – | –
6 | CN(C)[C@@H]1C(O)=C(C(N)=O)C(=O)[C@@]2(O)C(O)=C3C(=O)c4c(O)cccc4[C@@](C)(O)[C@H]3C[C@@H]12 [Tetracycline, reference compound] | – | – | – | – | – | – | – | – | – | – | – | – | – | – | – | – | – | MIC ([1]; positive control on every assay plate, read-out: MIC S. aureus): 0.5 µg/mL; MIC ([2]; positive control on every assay plate, read-out: MIC E. coli): 1 µg/mL
7 | CCCCCCCCCCN(CCCCCCCCCC)C(=O)CN=C1OCC2C(O)C(O)C(O)CN12 (stereo not shown) [Compound 2] | 125 µM | > 500 µM | – | – | – | – | – | – | – | – | modest antibacterial activities | > 100 µM | > 100 µM | > 100 µM | 0.9 ± 0.1 µM | 0.5 ± 0.01 µM | > 10 µM | IC50 [8, 25]: 0.01 ± 0.001 µM; IC50 [8, 26]: 0.002 ± 0.001 µM
8 | CCCCCCCCNC(=O)N1CC(O)C(O)C(O)C1 (stereo not shown) [Compound 7] | 125 µM | > 500 µM | > 100 µM | > 100 µM | > 100 µM | 19.6 ± 1.5 µM | > 100 µM | > 10 µM | > 10 µM | > 10 µM | modest antibacterial activities | – | – | – | – | – | – | –
9 | CCCCCCCCN=C1OCC2C(O)C(O)C(O)CN12 (stereo not shown) [Compound 12] | – | – | – | – | – | – | – | – | – | – | – | > 100 µM | > 100 µM | 5.7 ± 0.4 µM | 0.4 ± 0.01 µM | 0.1 ± 0.01 µM | > 10 µM | IC50 [8, 25]: 0.1 ± 0.01 µM; IC50 [8, 26]: 0.02 ± 0.001 µM
10 | CCCCCCCCCCN=C1OCC2C(O)C(O)C(O)CN12 (stereo not shown) [Compound 13] | – | – | – | – | – | – | – | – | – | – | – | > 100 µM | > 100 µM | 2.1 ± 0.1 µM | 0.1 ± 0.01 µM | 0.01 ± 0.01 µM | > 10 µM | IC50 [8, 25]: 0.02 ± 0.001 µM; IC50 [8, 26]: 0.001 ± 0.001 µM
11 | CCCCCCCCNC(=N)N1CC(O)C(O)C(O)C1 (stereo not shown) [Compound 15] | – | – | > 100 µM | > 100 µM | 38.1 ± 1.5 µM | < 0.1 µM | 53 ± 2.2 µM | 0.99 ± 0.09 µM | 0.24 ± 0.02 µM | > 10 µM | – | – | – | – | – | – | – | –
12 | CCCCCCCCCN1C[C@H](O)[C@@H](O)[C@H](O)[C@H]1CO [NN-DNJ, reference compound] | – | – | > 100 µM | > 100 µM | > 100 µM | > 100 µM | 0.2 ± 0.01 µM | – | – | > 10 µM | – | > 100 µM | > 100 µM | > 100 µM | > 100 µM | 0.1 ± 0.01 µM | > 10 µM | IC50 [3, 12]: > 30 µM; IC50 [4, 13]: > 30 µM; IC50 [5, 14]: > 30 µM; IC50 ([6]; footnote ***): > 30 µM; IC50 ([7]; footnote ***): 0.1 ± 0.01 µM; IC50 ([9]; footnote ***): > 30 µM
13 | CCCCCCCCCCCCNC(=O)N1CC(O)C(O)C(O)C1 (stereo not shown) [Compound 9] | 250 µM | > 500 µM | > 100 µM | > 100 µM | > 100 µM | 12.9 ± 1.9 µM | > 100 µM | > 10 µM | > 10 µM | > 10 µM | modest antibacterial activities | – | – | – | – | – | – | –
14 | CCCCCCCCOC1OCC(CNC(=N)N2CC(O)C(O)C(O)C2)O1 (stereo not shown) [Compound 17] | – | – | – | – | – | – | – | – | – | – | – | – | – | – | – | – | – | IC50 [3, 12]: > 30 µM; IC50 [4, 13]: > 30 µM; IC50 [5, 14]: 14.6 ± 0.6 µM; IC50 ([6]; footnote ***): > 30 µM; IC50 ([7]; footnote ***): > 30 µM; IC50 [8, 15]: > 30 µM; IC50 [8, 16]: 0.03 ± 0.01 µM; IC50 ([9]; footnote ***): > 30 µM
15 | CCCCCCCCCCN(CCCCCCCCCC)C(=O)CNC(=O)N1CC(O)C(O)C(O)C1 (stereo not shown) [Compound 16] | – | – | > 100 µM | > 100 µM | > 100 µM | 12.5 ± 2.9 µM | > 100 µM | > 10 µM | > 10 µM | > 10 µM | – | – | – | – | – | – | – | –
16 | CCCCCCCCCCCCN=C1OCC2C(O)C(O)C(O)CN12 (stereo not shown) [Compound 14] | – | – | – | – | – | – | – | – | – | – | – | > 100 µM | > 100 µM | 1.6 ± 0.1 µM | < 0.1 µM | 0.1 ± 0.01 µM | > 10 µM | IC50 [8, 25]: 0.01 ± 0.001 µM; IC50 [8, 26]: 0.001 ± 0.001 µM
